Experimental data reported in US9862682B2, “Functionalized pegylated cyanine compounds, pharmaceutical compositions, and methods of use thereof” (BroadPharm, priority 2016, dated 2018).

Assay: Photophysical properties of cyanine dyes in dimethyl sulfoxide (DU 800 spectrophotometer)
Type: physicochemical
Details: for Excitation (nm): absorption
Source text: The photophysical properties of a variety of cyanine dyes in dimethyl sulfoxide has been measured by the DU 800 spectrophotometer.

## COCCOCCOCCOCC[N+]1=C(/C=C/C=C/C=C2\N(CCOCCOCCOCCOCCC(=O)NCCC(=O)N3Cc4ccccc4C#Cc4ccccc43)c3ccccc3C2(C)C)C(C)(C)c2ccccc21 [D4]
  Emission (nm): 667 nm
  Extinction Coefficient: 6.42 × 10^4
  Excitation (nm): 649 nm

## O=C(O)CCOCCOCCOCCN1\C(=C/C=C\C=C\c2sc3ccccc3[n+]2CCOCCOCCOCCC(=O)O)Sc2ccccc21 [E2]
  Emission (nm): 682 nm
  Extinction Coefficient: 7.31 × 10^4
  Excitation (nm): 661 nm

## COCCOCCOCCOCCN1/C(=C/C=C/C=C/C2=[N+](CCOCCOCCOCCN=[N+]=[N-])c3ccccc3C2(C)C)Sc2ccccc21 [G2]
  Emission (nm): 671 nm
  Extinction Coefficient: 4.23 × 10^4
  Excitation (nm): 652 nm

## CC1(C)C(/C=C/C=C/C=C2\N(CCOCCOCCOCCOCCC(=O)NCCN3C(=O)C=CC3=O)c3ccccc3C2(C)C)=[N+](CCOCCOCCOCCN=[N+]=[N-])c2ccccc21 [D3]
  Emission (nm): 667 nm
  Extinction Coefficient: 6.94 × 10^4
  Excitation (nm): 649 nm

## C#CCOCCOCCOCCOCCOc1ccc2c(c1)C(C)(C)\C(=C/C=C\C=C/C1=[N+](C)c3ccc(OCCOCCOCCOCCOC)cc3C1(C)C)N2C [B1]
  Emission (nm): 699 nm
  Extinction Coefficient: 6.12 × 10^4
  Excitation (nm): 649 nm

## COCCOCCOCCOCC[N+]1=C(/C=C/C=C/C=C2\Sc3ccccc3N2CCOCCOCCOCCC(=O)O)C(C)(C)c2ccccc21 [G1]
  Emission (nm): 685 nm
  Extinction Coefficient: 7.65 × 10^4
  Excitation (nm): 661 nm

## COCCOCCOCCOCC[n+]1c(/C=C/C=C/C=C2\Sc3ccccc3N2CCOCCOCCOCCC(=O)O)sc2ccccc21 [E1]
  Emission (nm): 682 nm
  Extinction Coefficient: 7.11 × 10^4
  Excitation (nm): 661 nm

## COCCOCCOCCOCC[N+]1=C(/C=C/C=C/C=C2/N(CCOCCOCCOCCN)c3ccccc3C2(C)C)C(C)(C)c2ccccc21 [A2]
  Emission (nm): 667 nm
  Extinction Coefficient: 1.63 × 10^5
  Excitation (nm): 649 nm

## CC1(C)C(/C=C/C2=C(Cl)C(=C/C=C3/N(CCOCCOCCOCCN=[N+]=[N-])c4ccccc4C3(C)C)/CCC2)=[N+](CCOCCOCCOCCN=[N+]=[N-])c2ccccc21 [F1]
  Emission (nm): 817 nm
  Extinction Coefficient: 1.16 × 10^5
  Excitation (nm): 785 nm
